From US9079870B2, “Thiol mediated/activated prodrugs of sulfur dioxide (SO2) having anti-bacterial activity” (priority 2012, dated 2015)
≈ marks a conversion by molar mass, not a printed value. Read-outs that look alike come from different tables or passages of the source.

Legend:
[1] = system: Mycobacterium tuberculosis H37Rv strain; assay: Antimycobacterial activity assay (MIC, 7H11 agar); format: cell-based; settings: Mycobacterium tuberculosis, H37RV, Table 3, Mtb H37Rv
[2] = Pararosaniline-based colorimetric assay for sulfur dioxide; format: physicochemical; settings: detected with pararosaniline-based colorimetric assay; 10 equiv cysteine, pH 7.4
[3] = Cysteine-activated sulfur dioxide release, ion chromatography analysis of sulfite; settings: for SO2 yield, 30 min: Table 3, 30 min after treatment of compound (100 μM) with 10 equiv of cysteine in pH 7.4 phosphate buffer; for % SO2 (30 min): 30 min after commencement of the reaction with thiol, per mole of compound
S. aureus ATCC 29213 = assay: Antibacterial activity (MIC) against S. aureus; format: cell-based; settings: Staphylococcus aureus, ATCC29213, read-out: MIC (μg/mL) S. aureus ATCC 29213
Description: (§1) The antibacterial activity of thiol mediated/activated prodrugs of SO2 i.e. 2,4-dinitrophenylsulfonamide related compounds against the gram positive pathogenic bacteria selected from the group S. aureus, E. feacalis is given herein below Table 2a.

E. feacalis ATCC 29212 = assay: Antibacterial activity (MIC) against E. feacalis; format: cell-based; settings: Enterococcus faecalis, ATCC29212, read-out: MIC (μg/mL) E. feacalis ATCC 29212
Description: as §1

[4] = 672 h, inhibit 99% of bacterial growth, read-out: MIC
[5] = inhibit 99% of bacterial growth

Structure (SMILES)	MIC [1, 4] [µg/mL]	MIC [1] [µM]	MIC [1, 5] [µg/mL]	SO2 source [2]	melting point [°C]	SO2 yield, 30 min [3] [µM]	MIC (S. aureus ATCC 29213) [µg/mL]	MIC (E. feacalis ATCC 29212) [µg/mL]	% SO2 (30 min) [3] [%]
O=[N+]([O-])c1ccc(S(=O)(=O)N2CCOCC2)c([N+](=O)[O-])c1 [Compound 23, 4-[(2,4-dinitrophenyl)sulfonyl]morpholine]	≤ 25	19.6	6.25	yes	144 to 145	96			
O=[N+]([O-])c1ccc(S(=O)(=O)N2CCCCC2)c([N+](=O)[O-])c1 [Compound 24, 1-[(2,4-dinitrophenyl)sulfonyl]piperidine]	≤ 25	2.5	0.78	yes	138	91	4 (≈ 12.7 µM)	> 16	
O=[N+]([O-])c1ccc(S(=O)(=O)N(CCCN(Cc2ccccc2)S(=O)(=O)c2ccc([N+](=O)[O-])cc2[N+](=O)[O-])Cc2ccccc2)c([N+](=O)[O-])c1 [Compound 34, N,N′-(propane-1,3-diyl)bis(N-benzyl-2,4-dinitrobenzenesulfonamide)]					186 to 189				152
COc1cccc(N(CCCN(Cc2ccccc2)S(=O)(=O)c2ccc([N+](=O)[O-])cc2[N+](=O)[O-])S(=O)(=O)c2ccc([N+](=O)[O-])cc2[N+](=O)[O-])c1 [Compound 36, N-benzyl-N-(3-(N-(3-methoxyphenyl)-2,4-dinitrophenylsulfonamido)propyl)-2,4-dinitrobenzenesulfonamide]					108 to 110				184
COc1ccc(N(CCCN(Cc2ccccc2)S(=O)(=O)c2ccc([N+](=O)[O-])cc2[N+](=O)[O-])S(=O)(=O)c2ccc([N+](=O)[O-])cc2[N+](=O)[O-])cc1 [Compound 37, N-benzyl-N-(3-(N-(4-methoxyphenyl)-2,4-dinitrophenylsulfonamido)propyl)-2,4-dinitrobenzenesulfonamide]					118 to 120				183
O=[N+]([O-])c1ccc(S(=O)(=O)N(CCCN(c2ccccc2)S(=O)(=O)c2ccc([N+](=O)[O-])cc2[N+](=O)[O-])Cc2ccccc2)c([N+](=O)[O-])c1 [Compound 38, N-benzyl-N-(3-(2,4-dinitro-(N-phenyl)phenylsulfonamido)propyl)-2,4 dinitro benzene sulfonamide]					151 to 153				160
O=[N+]([O-])c1ccc(S(=O)(=O)N(CCCN(c2ccccc2F)S(=O)(=O)c2ccc([N+](=O)[O-])cc2[N+](=O)[O-])Cc2ccccc2)c([N+](=O)[O-])c1 [Compound 39, N-benzyl-N-(3-(N-(2-fluorophenyl)-2,4-dinitrophenylsulfonamido)propyl)-2,4-dinitrobenzenesulfonamide]					151 to 153				141
